Where two headings read alike, the source gives them in different places.
Key:
[1] = Pharmacokinetics in brain and plasma after dosing; format: in vivo, CD-1 mice
Procedure: KH022 in the present invention and the control described in example 56
The experimental animals are CD-1 mice.
Preparation of test compounds with 30% SBECD in water for intragastric administration. On the first day of the experiment, the animals in the first group are […] with the solution of KH022 or the control with the dosage of 5 mL/kg; before the administration, the animals were weighed, and the administration volume was calculated according to the body weight. Whole blood samples (about 0.03 ml per group) were collected at a specified time by saphenous vein puncture (or other suitable collection locations). Blood samples were immediately processed for plasma by centrifugation at approximately 4° C., 3,200 g for 10 min, quickly placed in dry ice, and kept below −20° C. until LC/MS/MS analysis. At each time point, animals were euthanized using CO2 and then brain tissue was collected, rinsed and dried with physiological saline, and homogenized with 4 times the brain weight (g) volume of 15 mM PBS (pH7.4):MeOH=2:1. After homogenization, samples were transferred to labeled centrifuge tubes and quickly placed in dry ice, stored at or below −20° C. for LC-MS/MS analysis.
The concentrations of the test compound in dose formulation samples was determined by the LC/UV, and the calibration curve contains at least 6 calibration standards, R^2≥0.999. The concentrations of the test compound in biological matrix was determined by the LC/MS/MS method. The retention time of test compounds or internal standards, chromatogram acquisition and chromatogram integration were processed by software Analyst (Applied Biosystems), and data statistics were processed by software Watson LIMS (Thermo Fisher Scientific) or Analyst (Applied Biosystems). The unit of the analyte concentration in the sample is ng/ml, with 3 significant digits reserved, and all values expressed in percentages (such as % deviation and % coefficient of variation, etc.) were kept to one decimal place. […]

[2] = target: T1, GABAA4 (α4β3δ) receptor (Homo sapiens, UniProt P28472+P48169); test: Patch-clamp electrophysiology, compound alone or with 10 nM GABA (Table 3); format: cell-based; settings: for Emax: relative to peak current in GABA only
T1 construct: expressed in transfected cells; host or cells: HEK293 (transient transfection, plasmids 1:1:1)
T1 sequence (P48169 36-554): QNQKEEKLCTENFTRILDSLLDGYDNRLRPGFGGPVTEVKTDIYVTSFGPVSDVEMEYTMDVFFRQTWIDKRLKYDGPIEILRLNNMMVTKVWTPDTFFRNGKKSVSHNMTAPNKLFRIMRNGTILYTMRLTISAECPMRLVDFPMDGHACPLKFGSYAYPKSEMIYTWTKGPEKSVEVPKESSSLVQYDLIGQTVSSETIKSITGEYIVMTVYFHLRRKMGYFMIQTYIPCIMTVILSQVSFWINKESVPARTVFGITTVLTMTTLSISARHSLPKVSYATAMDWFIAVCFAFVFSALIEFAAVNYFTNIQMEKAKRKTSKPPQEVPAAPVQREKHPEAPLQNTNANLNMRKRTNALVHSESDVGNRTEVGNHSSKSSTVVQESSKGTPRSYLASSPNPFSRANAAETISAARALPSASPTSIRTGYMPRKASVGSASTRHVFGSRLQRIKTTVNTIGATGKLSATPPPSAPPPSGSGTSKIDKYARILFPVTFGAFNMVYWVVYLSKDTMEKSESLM
T1 sequence (P28472 26-473): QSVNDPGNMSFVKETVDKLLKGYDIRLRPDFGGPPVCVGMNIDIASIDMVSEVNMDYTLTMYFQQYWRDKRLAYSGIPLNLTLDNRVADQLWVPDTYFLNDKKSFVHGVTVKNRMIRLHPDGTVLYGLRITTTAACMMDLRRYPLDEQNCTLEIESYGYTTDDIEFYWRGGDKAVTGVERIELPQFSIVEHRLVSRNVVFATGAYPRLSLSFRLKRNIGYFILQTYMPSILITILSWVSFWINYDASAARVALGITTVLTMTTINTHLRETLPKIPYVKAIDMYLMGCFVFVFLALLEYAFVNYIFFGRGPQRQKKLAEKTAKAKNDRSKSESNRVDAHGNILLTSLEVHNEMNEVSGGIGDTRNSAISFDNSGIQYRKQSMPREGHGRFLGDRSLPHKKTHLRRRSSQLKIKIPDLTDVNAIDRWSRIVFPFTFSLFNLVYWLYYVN
T1 sequence (O14764 25-452 partner): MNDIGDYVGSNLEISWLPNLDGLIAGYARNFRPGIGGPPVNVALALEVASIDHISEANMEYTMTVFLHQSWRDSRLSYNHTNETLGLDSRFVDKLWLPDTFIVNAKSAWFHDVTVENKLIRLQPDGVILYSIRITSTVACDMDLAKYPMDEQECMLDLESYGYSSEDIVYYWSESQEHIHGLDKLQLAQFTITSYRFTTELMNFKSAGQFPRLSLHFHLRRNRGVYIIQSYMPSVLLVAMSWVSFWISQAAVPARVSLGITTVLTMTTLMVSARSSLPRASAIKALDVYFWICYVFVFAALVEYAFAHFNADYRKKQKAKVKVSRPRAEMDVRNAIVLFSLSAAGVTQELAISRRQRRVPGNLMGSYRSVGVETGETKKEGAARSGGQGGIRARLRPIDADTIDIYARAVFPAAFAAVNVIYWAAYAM
Procedure: The present invention applies the two subunits of the recombinant GABAA receptor: α1β2γ2 and α4β3δ to evaluate the potency of the exemplary compounds in vitro by patch-clamp electrophysiology.
Extracellular fluid: 140 mM NaCl, 5 mM CsCl, 2 mM CaCl2·2H2O, 1 mM MgCl2·6H2O, 5 mM HEPES, 10 mM D-Glucose, pH=7.4 (NaOH).
Intracellular fluid: 130 mM CsCl, 0.1 mM CaCl2·H2O, 2 mM MgCl2·6H2O, 1.1 mM EGTA, 5 mM Na2-ATP, 10 mM HEPES, pH=7.2 (CsOH).
HEK293 cell line was cultured in DMEM containing 10% fetal bovine serum and 5% carbon dioxide at 37° C.
Cell passage: The old medium was removed, and the cells were washed once with PBS. Then 1 mL 0.25%-Trypsin-EDTA solution was added to digest cells. The culture dish was incubated at 37° C. in pre-warmed incubator for 0.5 minutes. As soon as cells were detached, about 5 mL 37° C. pre-warmed complete medium was added. Cell aggregates were dissociated by gentle pipetting. The cell suspension was transferred into a sterile centrifuge tube and then the cell suspension was be spun at approximately 1000 rpm for 5 minutes. The cells were amplified or maintained by seeding 2.5×10^5 cells in a 6 cm dish (final medium volume: 5 mL). For transfection, 8×10^3 cells were plated onto coverslips, and cultured in a 24-well plate (final medium volume: […]).
Transfection: Second day, the transfection of GABAA4 (α4, β3, δ plasmid ratio 1:1:1) was performed. The X-tremeGENE HP DAN Transfection Reagents kit were used. The ratio of the plasmid and transfection reagent was 1 μg: 2 μL. The amount of plasmid in the 24-well plate was 0.5 μg per well, and the transfection reagent was 1 μL. The following specific steps were taken for preparing the 12 wells: The 600 μL Opti-MEM was added to a sterile centrifuge tube along with 6 μg of plasmid and was allowed to mix well; Then, the 12 μL of transfection reagent was added, mixed well following 15 min incubation at room temperature. The transfection complex was then inoculated into the cell, 50 μL per well, and the transfection complex was lightly stirred and mixed.
This mixture was changed on the third day, and the patch-clamp was performed on the fourth day.
Glass pipette (BF 150-86-10, Sutter Instruments) was pulled using a micropipette puller (P97, Sutter Instruments). The glass pipette was manipulated using a micro-manipulator (MP285, Sutter Instruments) under the microscope (IX71, Olympus). After touching the cell, a slight suction was applied to achieve high seal resistance (GQ). Fast capacitance (in pF) compensation was made after achieving high seal, and the membrane was broken. Cell capacitance (in pF) compensation was made from whole-cell capacitance compensation after the whole cell mode was achieved. No leak subtraction was made.
The test and control solutions flowed into a recording chamber mounted on the stage of an inverted microscope via a gravity-fed solution delivery system. During the experiment, solutions were withdrawn from the recording chamber by vacuum aspiration. Each concentration was tested at multiple times. All tests were performed at room temperature.
Whole cell model recorded GABAA4 receptors current experimental protocol was indicated as follows: When sealing, cell was at a holding potential of −70 mV, with gap-free mode to record the peak current. The cell would be applied with 10 nM GABA to active current. After the test articles application for 30 s, each concentration of test articles was applied with 10 nM GABA followed by 2 minutes washout using extracellular solution. Finally, 10 μM GABA was used as a positive control. The data were collected by EPC-10 amplifier and stored in PatchMaster (HEKA) software.
The following criteria are used to determine whether the data is acceptable: • (1) Electrode resistance <5MΩ • (2) Seal resistance >1GΩ • (3) The start of access resistance <15 MΩ • (4) The end of access resistance <15 MΩ • (5) No obvious spontaneous current decay. • (6) No obvious current leakage when the membrane potential is-70 mv. […]

[3] = tested on: mice; test: Elevated Plus Maze (EPM) testing; format: in vivo; settings: 5 consecutive days, 30 min after last administration, male mice
Text: 57.3.2 Elevated Plus Maze (EPM) testing: EPM for exploratory behavior was used to assess general motor and anxiety-like behavior that was consisting of two open arms and two closed arms extending from a common central platform, thus forming anxiety-like symptoms. The anxiolytic compound would relieve the anxiety conflict status of animals in the test system. The experimental mice were randomly divided into 4 groups based on weight, including a negative control group, two different dosage groups (1 mg/kg and 3 mg/kg) of test compounds (KH004 or KH022), and every group had 10 male mice. Mice were administered with corresponding dosage for test intervention for 5 consecutive days in advance, and conducting anxiolytic experiments after 30 min of the last administration. The percentage of the retention time (latency) of mice open arms were used as the main index to evaluate the anxiolytic effect of KH004 and KH022, the results are shown in Table 5.

[4] = with 10 nM GABA, read-out: Emax (with 10 nM GABA)
[5] = without GABA, read-out: Emax (without GABA)
[6] = with 10 nM GABA, read-out: EC50 (with 10 nM GABA)

SMILES | detection in the brain ([1]; mouse brain, 8h) | EC50 ([2]; EC50 (with 10 nM GABA), with 10 nM GABA) [nM] | Emax [2, 4] [%] | Emax [2, 5] [%] | The retention time of mice open arms ([3]; 1 mg/kg) [%] | The retention time of mice open arms ([3]; 3 mg/kg) [%] | content in the mouse brain relative to the control ([1]; 2h, same dosage) [times] | clearance in the mouse brain compared with the control ([1]; same dosage) | EC50 [2, 6] [nM] | EC50 ([2]; without GABA, read-out: EC50 (without GABA)) [nM]
C[C@@]1(O)CC[C@H]2[C@H](CC[C@@H]3[C@@H]2CC[C@]2(C)[C@@H](C(=O)Cn4cc(C#N)cn4)CC[C@@H]32)C1 [The control, reference compound] | no detection | 219 | 149 | 114 | – | – | – | – | – | –
C[C@@]1(O)CC[C@@]2(C)[C@@H](CC[C@@H]3[C@@H]2CC[C@]2(C)[C@@H](C(=O)Cn4ncnn4)CCC[C@@H]32)C1 [KH022] | – | – | 88.6 | 45.8 | 31.40 ± 16.41 | 39.46 ± 11.82 | 2.5 | cleared more slowly | 386 | –
C[C@]12CC[C@@H](O)C[C@@H]1CC[C@@H]1[C@@H]2CC[C@]2(C)[C@@H](C(=O)Cn3ncnn3)CCC[C@@H]12 [KH004] | – | – | 172 | 158 | 27.21 ± 11.15 | 36.44 ± 13.28 | – | – | 135 | 172

Reference: patent US12415830B2, “Steroid compound, and use thereof and preparation method therefor” (Chengdu Kanghong Pharmaceutical Co Ltd, priority 2019, dated 2025)
